Results as given in patent US20130324605A1, “USES OF CIMIRACEMATE A AND RELATED COMPOUNDS FOR TREATING INFLAMMATION AND MODULATING IMMUNE RESPONSES” (VERSITECH LIMITED, priority 2010, published 2013).

How the values were obtained:
[1] = tested on: LPS-induced TNF-α protein production; assay: LPS-induced TNF-α production in primary blood macrophages (ELISA); format: cell-based; details: Homo sapiens, Macrophage, PBMac
Protocol: FIGS. 6A-6B show inhibition of LPS-induced TNF-α production by B22EES1-8-3 and dexamethasone. PBMac were incubated with (A) 140 μM B22EES1-8-3 or (B) 1.3 or 5.1 μM dexamethasone (Dex) for 24 hr prior to the addition of 1 ng/mL and 10 ng/mL LPS for another 24 hr. The culture supernatants were collected and assayed for TNF-α by ELISA. The results shown were the mean values±standard derivation (S.D.) of 6 independent experiments, with cells obtained from different donors. * P<0.05, compared with the corresponding control.
Cell Culture and Primary Blood Macrophage Isolation Human peripheral blood monocytic cells (PBMC) were isolated from the buffy coat of healthy donor blood supplied by Hong Kong Red Cross by Ficoll-Paque (Amersham Pharmacia Biotech, Piscataway, N.J.) density gradient centrifugation as described in our previous reports^36-38. In brief, the buffy coat was spun at 3000 rotations per min (rpm) for 15 min to separate the blood cells and the plasma. The heat inactivated serum was filtered for future use.
The adherent monocytic cells were detached and seeded onto tissue culture plates and incubated for another 7-14 days in order to differentiate the primary blood monocytic cells to primary blood macrophages (PBMac).
Culture supernatants of the LPS-treated PBMac, with or without B22EES1-8-3 pretreatment, were collected at different time intervals and stored at −70° C. The levels of the secreted TNF-α were measured by ELISA kits specific for the cytokine (R&D system, Minneapolis, Minn.).
To confirm the activities of Cim A in suppressing TNF-α production, Cim A was incubated with PBMac for 24 hr prior the addition of LPS at concentrations of 1 ng/mL and 10 ng/mL for 24 hr. The culture supernatants were collected and measured by ELISA for the level of secreted TNF-α.
To further compare the efficiency of Cim A with existing drugs, dexamethasone, a potent immunosuppressive corticosteroid, was used as a prototype. PBMac were treated with dexamethasone for 24 hr prior to the addition of LPS at concentrations of 1 ng/mL and 10 ng/mL for 24 hr.

ERK1/2 = assay: LPS-induced phosphorylation of ERK1/2 in PBMac (Western blot); format: cell-based, human; details: 140 μM for 24 h prior to 10 ng/mL LPS for 15 min
Protocol: FIGS. 7A-7C show the effects of Cim A (B22EES1-8-3) on LPS-induced phosphorylation (phospho-) of ERK1/2 and p38 MAP kinases, and nuclear translocation of NF-KB p65. PBMac were incubated with B22EES1-8-3 (140 μM) for 24 h prior to the addition of 10 ng/mL LPS for an additional 15 min. Cytoplasmic (A, B) and nuclear (C) proteins were harvested for Western Blotting: (A) Cytoplasmic proteins: phospho-ERK1/2 and total ERK1/2. (B) Cytoplasmic proteins: phospho-p38 and total p38 kinase. (C) Nuclear proteins: upper panel, NF-κB p65 and lamin B; lower panel, the intensity of corresponding lanes in the gel photograph of NF-κB p65 was shown. […]
Whole cell lysate (20 μg) or nuclear protein (2 μg) were separated by sodium dodecyl sulfate polyacrylamide gel electrophoresis (SDS-PAGE) and transferred to nitrocellulose membranes for probing overnight with the respective antibodies specific for the phosphorylated or total form of ERK1/2 and p38 MAPK (Cell Signaling Technology, Beverly, Mass.), NF-KB p65 protein and lamin B (Santa Cruz Biotechnology, Santa Cruz, Calif.). […] In order to quantify the results from the Western blots, the gels were scanned and the intensity of the bands was analyzed by a computer program Quantity One from BioRad. […]

5-LOX = 5-LOX inhibitor screening assay (Cayman kit); format: biochemical; details: 12.5, 25 and 50 μg/ml, linoleic acid substrate, 5 min incubation, FIG. 1A
Protocol: The 5-LOX inhibition assay was performed using Cayman's Lipoxygenase Inhibitor Screening Assay Kit (Cayman Chemical Company, Ann Arbor, Mich.) according to the manufacturer's instructions. The 5-LOX enzyme and Linoleic acid (Substrate) were added together in the presence of DMSO (Control) and Cim A at a concentration ranging from 12.5 to 50 μg/ml. After incubation for 5 min, developing agents were added. The production of hydroperoxides was measured and quantified with the use of a microplate reader at wavelength of 490 nm. The 5-LOX enzymatic activity is calculated as nmol/min/ml.
Briefly, 5-LOX inhibition assay was performed by using Cayman's lipoxygenase inhibitor screening assay kit (Cayman Chemical Company, Ann Arbor, Mich.) according to the manufacturer's instructions. The 5-LOX and linoleic acid (substrate) were added simultaneously into dimethyl sulfoxide (DMSO) (Control) or Cim A at a concentration of 12.5, 25, and 50 μg/ml, respectively. After incubation for 5 min, developing reagents for the 5-LOX inhibition assay were added. Hydroperoxide production was measured using a microplate reader at a wavelength of 490 nm. The 5-LOX enzymatic activity is calculated as nmol/min/ml.

[2] = tested on: leukotriene B4 (LTB4) production; assay: Leukotriene B4 production in activated human blood mononuclear cells; format: cell-based; details: 25 or 50 μg/ml for 1 hour, then calcium ionophore A23187 30 min, PBMC, FIG. 1B
Protocol: Freshly isolated human blood mononuclear cells (PBMC) (1×10^7) were pre-treated with 0.05% DMSO or Cim A (25 or 50 μg/ml) for 1 h, followed by addition of 5 μM Calcium ionophore A23187 (Sigma Aldrich, St. Louis, Mo.) for 30 min. After centrifugation for 1 min, the supernatants were collected. The level of leukotriene B4 (LTB4) was measured using LTB4 parameter assay kit (R&D Systems, Minneapolis, Minn.).
This Example investigates the effects of Cim A on LTB4 production. Briefly, freshly isolated human blood mononuclear cells (1×10^7) were pretreated with 0.05% DMSO or Cim A (25 or 50 μg/ml) for 1 hour, followed by the addition of calcium ionophore A23187 at a concentration of […] (Sigma Aldrich, St. Louis, Mo.) for 30 min. After centrifugation for 1 min, the supernatant was collected. The level of leukotriene B4 (LTB4) was measured by using a LTB4 assay kit (R&D Systems, Minneapolis, Minn.).

SMILES	inhibition at 140 µM ([1]; 140 μM for 24 hr prior to LPS 1 ng/mL for 24 hr) [%]	inhibition at 140 µM ([1]; 140 μM for 24 hr prior to LPS 10 ng/mL for 24 hr) [%]	LPS-induced phosphorylation of ERK1/2 (ERK1/2)	5-LOX enzymatic activity (hydroperoxide production) (5-LOX)	production of LTB4 [2]	inhibition at 1.3 µM ([1]; 1.3 μM for 24 hr prior to LPS for 24 hr) [%]	inhibition at 5.1 µM ([1]; 5.1 μM for 24 hr prior to LPS for 24 hr) [%]
COc1ccc(/C=C/C(=O)OCC(=O)Cc2ccc(O)c(O)c2)cc1O [Cim A, Cimiracemate A]	47 ± 19	58 ± 30	suppressed	potently suppressed 5-LOX activity in a dose-dependent manner	inhibits the production of LTB4 in a dose-dependent manner	–	–
C[C@@H]1C[C@H]2[C@@H]3CCC4=CC(=O)C=C[C@]4(C)[C@@]3(F)[C@@H](O)C[C@]2(C)[C@@]1(O)C(=O)CO [dexamethasone, Dexamethasone, reference compound]	–	–	–	–	–	32 ± 7.5	25 ± 6.3
